From patent publication US4347319A, “Microbiological epoxidation process” (priority 1980, dated 1982) come the findings set out here.

Where two headings read alike, the source gives them in different places.

In assay [1] the target is T1, cell fractions of Methylosinus sp. (CRL-15, NRRL B-11,202) (Methylosinus trichosporium, UniProt Q50541+Q9KX50+Q9KX51).
T1 sequence (Q9KX50 40-431): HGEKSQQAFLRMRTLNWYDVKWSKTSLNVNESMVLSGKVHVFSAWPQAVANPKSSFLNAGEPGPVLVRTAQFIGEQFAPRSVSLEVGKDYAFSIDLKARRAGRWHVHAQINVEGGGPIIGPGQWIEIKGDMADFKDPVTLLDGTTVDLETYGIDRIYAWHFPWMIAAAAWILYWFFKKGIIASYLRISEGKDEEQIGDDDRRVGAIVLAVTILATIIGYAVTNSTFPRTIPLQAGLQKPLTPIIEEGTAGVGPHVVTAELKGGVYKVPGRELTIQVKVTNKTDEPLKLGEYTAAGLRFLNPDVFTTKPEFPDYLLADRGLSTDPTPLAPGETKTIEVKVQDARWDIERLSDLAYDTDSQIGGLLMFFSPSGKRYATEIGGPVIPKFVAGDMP
T1 sequence (Q50541 1-252): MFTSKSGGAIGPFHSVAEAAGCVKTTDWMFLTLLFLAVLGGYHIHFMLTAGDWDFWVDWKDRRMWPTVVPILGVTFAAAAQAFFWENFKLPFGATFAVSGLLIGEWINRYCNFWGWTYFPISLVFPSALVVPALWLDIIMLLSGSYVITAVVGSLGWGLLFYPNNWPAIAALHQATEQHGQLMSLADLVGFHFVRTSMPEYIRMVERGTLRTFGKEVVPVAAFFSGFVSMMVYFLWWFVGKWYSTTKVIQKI
T1 sequence (Q9KX51 1-256): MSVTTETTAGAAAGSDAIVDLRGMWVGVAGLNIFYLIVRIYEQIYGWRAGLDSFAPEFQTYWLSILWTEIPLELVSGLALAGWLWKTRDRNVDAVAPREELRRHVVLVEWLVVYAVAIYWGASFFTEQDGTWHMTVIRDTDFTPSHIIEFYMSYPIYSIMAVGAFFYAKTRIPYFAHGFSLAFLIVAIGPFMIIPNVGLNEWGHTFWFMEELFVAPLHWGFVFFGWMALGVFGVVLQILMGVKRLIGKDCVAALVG
In words: Oxidation by cell fractions P(40), P(80), S(80). The class given is biochemical. Particulars: for Rate of Product Formation: P(40) particulate fraction, alkene to epoxide, alkane to alcohol; for Rate of Product Formation / Oxidizing Activity (rate of oxidation) in cell fraction: 30° C.; for Conversion Rate: particulate P(40) fraction, n-propane to 2-propanol, n-butane to 2-butanol; for 100% activity, product formed (storage study) / 100% activity, product formed (pH study) / 100% activity, product formed (temperature study) / Oxidizing Activity (rate of oxidation) in cell fraction: methane to methanol, propylene to propylene oxide; for 100% activity, product formed (pH study): optimum pH 7.0; for 100% activity, product formed (temperature study): optimum temperature 35° C.; for % Distribution in Cell Fraction: propylene-epoxidizing / methane-hydroxylating activity; for Product Formed / O2 Consumed / NADH Oxidized: stoichiometry, 5.0 μ moles substrate; for Product Formed: gas chromatography; for O2 Consumed: polarographically; for NADH Oxidized: spectrophotometrically. As for the experimental part:
(§1) Cells were washed twice with 25 mM potassium phosphate buffer, pH 7.0 containing 5 mM MgCl2. Cells were suspended in the same buffer. The cell suspensions at 4° C. were disintegrated by a single passage through a French Pressure cell (15,000 lb./in.^2) and centrifuged at 5000×g. for 15 min. to remove unbroken bacteria. The supernatant solution (crude extract) was then centrifuged at 40,000×g. for 30 min., yielding particulate P(40) and soluble S(40) fractions. The S(40) fraction was subsequently centrifuged at 80,000×g. for 60 min., yielding particulate P(80) and soluble S(80) fractions. The particulate fractions [P(40) and P(80)] were suspended in 25 mM potassium phosphate buffer, pH 7.0, containing 5 mM MgCl2 and homogenized at 4° C.
(§2) The oxidation of methane and propylene by particulate [(P)40 and (P)80] fractions and soluble [S(80)] fraction was measured at 30° C. by estimating the production of methanol and propylene oxide, respectively. The reaction mixtures contained in […]: 150 mM potassium phosphate buffer, pH 7.0 containing 5 mM MgCl2 b, 0.6 ml; 10μ moles NADH, and cellular fraction.
(§3) Reaction mixtures were contained in 10 ml vials at 4° C. Vials were sealed with rubber caps. The gaseous phase in the vials was removed using vacuum and then was replaced with a gas mixture of methane or propylene and oxygen at a 1:1, v/v ratio. Oxidation of other gaseous n-alkanes and n-alkanes was examined as described above. For liquid substrates, 10 μl of substrate was used directly.
(§4) The products of epoxidation of n-alkenes and hydroxylation of n-alkanes were assayed by flame ionization gas chromatography using a stainless steel column (12'×1/8") packed with 10% Carbowax 20 M on 80/100 Chromosorb W and Porapak Q column. The column temperature was maintained isothermally at 120° C. The carrier gas flow rate was 30 ml/min. of helium. The various products were identified by retention time comparisons and co-chromatography with authentic standards.
(§5) Specific activities were expressed as μ moles of products formed per hour per mg. protein. Concentrations of protein in various fractions were determined by the method of Lowry et al., J. Biol. Chem., 193: 265-275 (1951).

In assay [2] the test system is cell fractions of Methylobacterium sp. (CRL-26, NRRL B-11,222). As to the kind of experiment: Oxidation by cell fractions P(40), P(80), S(80). The class given is biochemical. As to conditions: for Conversion Rate: particulate P(40) fraction, n-propane to 2-propanol, n-butane to 2-butanol; for Oxidizing Activity (rate of oxidation) in cell fraction: propylene to propylene oxide, methane to methanol, 30° C. The method, then: as §1, §2, §3, §4, §5

Assay [3] deals with Methylosinus trichosporium OB3b (NRRL B-11,196). In words: Oxidation by cell suspensions of methane-grown cells. The class given is cell-based. As to conditions: methane-grown cell-suspension, pH 7.0.
Assay [4] has as its target T2, cell fractions of Methylosinus trichosporium (OB3b, NRRL B-11,196) (Methylosinus trichosporium, UniProt Q50541+Q9KX50+Q9KX51).
T2 sequence (Q9KX50 40-431): T1 sequence (Q9KX50 40-431)
T2 sequence (Q50541 1-252): T1 sequence (Q50541 1-252)
T2 sequence (Q9KX51 1-256): T1 sequence (Q9KX51 1-256)
Type of assay: biochemical. As to conditions: for Conversion Rate: particulate P(40) fraction, n-propane to 2-propanol, n-butane to 2-butanol; for Oxidizing Activity (rate of oxidation) in cell fraction: propylene to propylene oxide, methane to methanol, 30° C.; for % Distribution in Cell Fraction: propylene-epoxidizing / methane-hydroxylating activity. The method, then:
as §1, §2, §3, §4, §5

Turning to `C=CC=C` [Butadiene], in assay [1], the “Rate of Product Formation” value was 0.63 μ moles/hr/mg of protein.
As for `CCCC` [Butane], the “Conversion Rate” value in assay [1] is recorded as 0.89 μmoles/hr/2.0mg. of protein. Moreover, the “Conversion Rate” value in assay [2] is 0.61 μmoles/hr/2.0mg. of protein. Moreover, in assay [3] (3° C.), the “Conversion Rate to 1-Butanol” value was found to be 0.3 μmoles/hr./mg./protein, the “Conversion Rate to 2-Butanol” value is on record as 0.4 μmoles/hr./mg./protein, the “Conversion Rate to 2-Butanone” value was 0.1 μmoles/hr./mg./protein and the “Conversion Rate to n-butanol” value was found to be 0.1 μmoles/hr./mg./protein. In addition, the “Conversion Rate” value in assay [4] is on record as 0.79 μmoles/hr/2.0mg. of protein.
With `C` [Methane], in assay [1], the “Rate of Product Formation” value is 4.8 μ moles/hr/mg of protein. In addition, in assay [1] (P(40)), the “100% activity, product formed (storage study)” value is given as 4.8 μmoles per hr. per mg. of prot; the “100% activity, product formed (pH study)” value was 4.8 μmoles per hour per mg protein; the “100% activity, product formed (temperature study)” value is given as 5.0 μmoles per hour per mg of prot; the “Oxidizing Activity (rate of oxidation) in cell fraction” value (shortened to “Oxidizing Activity … in cell fraction”) is 4.8 μ moles of products formed per. In addition, in assay [1] (P(40)), the “% Distribution in Cell Fraction” value came out at 88%, the “Product Formed” value came to 4.2 μ moles, the “O2 Consumed” value turned out to be 4.6 μ moles and the “NADH Oxidized” value is reported as 4.8 μ moles. Moreover, in assay [1] (P(80)), the “Oxidizing Activity … in cell fraction” value is reported as 4.2 μ moles of products formed per and the “% Distribution in Cell Fraction” value is reported as 12%. Also, in assay [1] (S(80)), the “Oxidizing Activity … in cell fraction” value is given as 0 μ moles of products formed per and the “% Distribution in Cell Fraction” value came to 0%. The “Oxidizing Activity … in cell fraction” value in assay [2] (P(40)) is 2.7 μ moles of products formed per. The “Oxidizing Activity … in cell fraction” value in assay [2] (P(80)) is given as 2.8 μ moles of products formed per. In addition, in assay [2] (S(80)), the “Oxidizing Activity … in cell fraction” value is on record as 0 μ moles of products formed per. The “Conversion Rate to Methanol” value in assay [3] (3° C.) came out at 1.5 μmoles/hr./mg./protein. Also, in assay [4] (P(40)), the “Oxidizing Activity … in cell fraction” value is on record as 3.1 μ moles of products formed per and the “% Distribution in Cell Fraction” value was 83%. Further, in assay [4] (P(80)), the “Oxidizing Activity … in cell fraction” value was 3.0 μ moles of products formed per and the “% Distribution in Cell Fraction” value is 13%.
Regarding `CCC` [Propane], in assay [1], the “Conversion Rate” value is listed as 1.5 μmoles/hr/2.0mg. of protein. Besides, the “Conversion Rate” value in assay [2] is 1.0 μmoles/hr/2.0mg. of protein. For the same compound, in assay [3] (3° C.), the “Conversion Rate to 2-Propanol” value is 0.6 μmoles/hr./mg./protein, the “Conversion Rate to Acetone” value was determined as 0.2 μmoles/hr./mg./protein and the “Conversion Rate to Propanol” value was determined as 0.1 μmoles/hr./mg./protein. Moreover, the “Conversion Rate to 1-Propanol” value in assay [3] (30° C.) was 0.4 μmoles/hr./mg./protein. Also, the “Conversion Rate” value in assay [4] is given as 1.32 μmoles/hr/2.0mg. of protein.
As to `C=CC` [Propylene], the “Rate of Product Formation” value in assay [1] is 4.1 μ moles/hr/mg of protein. In assay [1] (P(40)), the “100% activity, product formed (storage study)” value was 4.1 μmoles per hr. per mg. of prot; the “100% activity, product formed (pH study)” value is 4.1 μmoles per hour per mg protein; the “100% activity, product formed (temperature study)” value was 4.2 μmoles per hour per mg of prot; the “Oxidizing Activity … in cell fraction” value was 3.8 μ moles of products formed per. Moreover, in assay [1] (P(40)), the “% Distribution in Cell Fraction” value is reported as 87%, the “Product Formed” value was 4.5 μ moles, the “O2 Consumed” value was 4.8 μ moles and the “NADH Oxidized” value was found to be 5.0 μ moles. Further, in assay [1] (P(80)), the “Oxidizing Activity … in cell fraction” value was 3.7 μ moles of products formed per and the “% Distribution in Cell Fraction” value was 13%. In addition, in assay [1] (S(80)), the “Oxidizing Activity … in cell fraction” value is given as 0 μ moles of products formed per and the “% Distribution in Cell Fraction” value was 0%. For the same compound, the “Oxidizing Activity … in cell fraction” value in assay [2] (P(40)) is reported as 1.2 μ moles of products formed per. The “Oxidizing Activity … in cell fraction” value in assay [2] (P(80)) was 1.1 μ moles of products formed per. Further, the “Oxidizing Activity … in cell fraction” value in assay [2] (S(80)) is 0 μ moles of products formed per. In addition, in assay [4] (P(40)), the “Oxidizing Activity … in cell fraction” value is 2.8 μ moles of products formed per and the “% Distribution in Cell Fraction” value is 82%. Also, in assay [4] (P(80)), the “Oxidizing Activity … in cell fraction” value is 2.5 μ moles of products formed per and the “% Distribution in Cell Fraction” value is 18%.
